Test results reported in patent US20260234115A1, “LIPID COMPOUNDS, COMPOSITIONS, AND USES THEREOF” (Liberate Bio, Inc., priority 2023, published 2026).
Marks after values point to notes of the source that are not given here.

System: mouse organs
Assay: In vivo activity screening in mice: organ mean total flux (p/s) of luciferase activity after injection of F2 LNP pools (Table 6, FIG. 7A-7C)
Settings: luciferase mRNA
Protocol: Small rodent biodistribution studies were performed in mice (e.g., C57BL/6J, Balb-c, CD-1, etc.). For evaluating LNP biodistribution and tissue activity upon systemic administration, C57BL/6J mice received dose administration by single intravenous injection via tail vein with LNP formulations (individual or pooled) in PBS, at different dose (0.25-3 mg/kg) levels of firefly luciferase mRNA. At predetermined time points (4-6 hours post-injection), the animals were anesthetized via isoflurane and subjected to in-life imaging sessions for bioluminescence using an In Vivo Imaging System (IVIS). All animals were dosed with D-Luciferin at 15 mg/mL via subcutaneous (SC) injection at 0.2 mL/animal. Animals had their abdomen hair shaved using an animal trimmer. They were then placed so their shaved belly faced up toward the IVIS camera. Whole body imaging sessions were performed 10-15 minutes following D-Luciferin administration.
For in detail organ distribution and activity of LNP formulations, ex vivo imaging sessions were also performed. All animals received SC D-Luciferin and were then euthanized by isoflurane overdose, followed by cardiac perfusion with saline. Following perfusion, the organs were collected and subjected to IVIS imaging for luminescence within 10-15 minutes of D-Luciferin injection.
All IVIS images were processed with a computer software to identify the regions of interests for individual organs to detect the total flux (p/s) values as luminescence quantification. Then the total flux values were graphed to evaluate the in vivo activity in each collected organ.
Small rodent biodistribution studies were performed in mice according to the General Study Protocols in Example 3(a). LNPs incorporating lipid compounds were prepared in Formulation F2, with MC3 as lipid compound (Cayman Chemical) prepared using Formulation F2 for comparison. LNP pools (with firefly luciferase mRNA encapsulated) were injected into mice at varying doses, and organ mean total flux (p/s) results (measuring luciferase activity) were then collected according to Example 3(a).
LNPs comprising MC3 used as a control and for cross-mouse comparison. Dose is in mg/kg; LC is Lipid Compound according to Table 1.
Additional screening results for Compounds 7, 13, 14, 26, 33, 38, 39, 40, 48, 60, 61, 89, 103, and 109 in spleen, femur, and muscle are shown in FIG. 7A, FIG. 7B, and FIG. 7C, with MC3 as a used as a control for comparison.

Structure (SMILES): CCCCC/C=C\CCOC(=O)CCCCC(=O)OCC(COC(=O)CCCCC(=O)OCC/C=C\CCCCC)(COC(=O)CCC(CCCC)CCOC(=O)NCCN1CCCC1)COC(=O)CC12CC3CC(CC(C3)C1)C2 (centres unmarked) [Compound 61, O6-[2-[[2-(1-adamantyl)acetyl]oxymethyl]-2-[[6-[(Z)-non-3-enoxy]-6-oxo-hexanoyl]-oxymethyl]-3-[4-[2-(2-pyrrolidin-1-ylethylcarbamoyloxy)ethyl]octanoyloxy]propyl]O1-[(Z)-non-3-enyl]hexanedioate]
- Organ Mean Total Flux Femur (Mouse 2, dose 1.0 mg/kg): 34.2 p/s (×10^6)
- Organ Mean Total Flux Heart (Mouse 2, dose 1.0 mg/kg): 1.9 p/s (×10^6)
- Organ Mean Total Flux Kidney (Mouse 2, dose 1.0 mg/kg): 4.8 p/s (×10^6)
- Organ Mean Total Flux Liver (Mouse 2, dose 1.0 mg/kg): 542.7 p/s (×10^6)
- Organ Mean Total Flux Lung (Mouse 2, dose 1.0 mg/kg): 123.9 p/s (×10^6)
- Organ Mean Total Flux Muscle (Mouse 2, dose 1.0 mg/kg): 28.1 p/s (×10^6)
- Organ Mean Total Flux Pancreas (Mouse 2, dose 1.0 mg/kg): 28.8 p/s (×10^6)
- Organ Mean Total Flux Spleen (Mouse 2, dose 1.0 mg/kg): 85.1 p/s (×10^6)
- Organ Mean Total Flux Femur (Mouse 14, dose 0.5 mg/kg): 16.6 p/s (×10^6)
- Organ Mean Total Flux Heart (Mouse 14, dose 0.5 mg/kg): 1.0 p/s (×10^6)
- Organ Mean Total Flux Kidney (Mouse 14, dose 0.5 mg/kg): 5.0 p/s (×10^6)
- Organ Mean Total Flux Liver (Mouse 14, dose 0.5 mg/kg): 157.3 p/s (×10^6)
- Organ Mean Total Flux Lung (Mouse 14, dose 0.5 mg/kg): 33.8 p/s (×10^6)
- Organ Mean Total Flux Muscle (Mouse 14, dose 0.5 mg/kg): 11.1 p/s (×10^6)
- Organ Mean Total Flux Pancreas (Mouse 14, dose 0.5 mg/kg): 51.6 p/s (×10^6)
- Organ Mean Total Flux Spleen (Mouse 14, dose 0.5 mg/kg): 109.9 p/s (×10^6)

Structure (SMILES): CCCCC/C=C\CCCOC(=O)CCCCCCC(=O)OCC(COC(=O)CCCCCCC(=O)OCCC/C=C\CCCCC)(COC(=O)CCCCCCC(=O)OCCC/C=C\CCCCC)COC(=O)CCC(CCCCCC)OC(=O)NCCN1CCCC1 (centres unmarked) [Compound 46, 8,8′-di((Z)-dec-4-en-1-yl) O′1,O1-(2-(((8-(((Z)-dec-4-en-1-yl)oxy)-8-oxooctanoyl)oxy)methyl)-2-(((4-(((2-(pyrrolidin-1-yl)ethyl)carbamoyl)oxy)decanoyl)oxy)methyl)propane-1,3-diyl) di(octanedioate)]
- Organ Mean Total Flux Femur (Mouse 11, dose 0.5 mg/kg): 1.8 p/s (×10^6)
- Organ Mean Total Flux Heart (Mouse 11, dose 0.5 mg/kg): 4.1 p/s (×10^6)
- Organ Mean Total Flux Kidney (Mouse 11, dose 0.5 mg/kg): 2.1 p/s (×10^6)
- Organ Mean Total Flux Liver (Mouse 11, dose 0.5 mg/kg): 3107 p/s (×10^6)
- Organ Mean Total Flux Lung (Mouse 11, dose 0.5 mg/kg): 17.8 p/s (×10^6)
- Organ Mean Total Flux Muscle (Mouse 11, dose 0.5 mg/kg): 4.2 p/s (×10^6)
- Organ Mean Total Flux Pancreas (Mouse 11, dose 0.5 mg/kg): 0.9 p/s (×10^6)
- Organ Mean Total Flux Spleen (Mouse 11, dose 0.5 mg/kg): 1.8 p/s (×10^6)

Structure (SMILES): CCCCC/C=C\CCOC(=O)CCCCC(=O)OCC(COC(=O)CCCCC(=O)OCC/C=C\CCCCC)(COC(=O)CCC(CCCCCC)OC(=O)NCCN1CCCC1)COC(=O)C12CCC(CC1)CC2 (centres unmarked) [Compound 67, O6-[2-(bicyclo[2.2.2]octane-1-carbonyloxymethyl)-2-[[6-[(Z)-non-3-enoxy]-6-oxo-hexanoyl]-oxymethyl]-3-[4-(2-pyrrolidin-1-ylethylcarbamoyloxy)decanoyloxy]propyl]O1-[(Z)-non-3-enyl]hexanedioate]
- Organ Mean Total Flux Femur (Mouse 12, dose 0.5 mg/kg): 10.8 p/s (×10^6)
- Organ Mean Total Flux Heart (Mouse 12, dose 0.5 mg/kg): 0.4 p/s (×10^6)
- Organ Mean Total Flux Kidney (Mouse 12, dose 0.5 mg/kg): 1.9 p/s (×10^6)
- Organ Mean Total Flux Liver (Mouse 12, dose 0.5 mg/kg): 220.0 p/s (×10^6)
- Organ Mean Total Flux Lung (Mouse 12, dose 0.5 mg/kg): 11.8 p/s (×10^6)
- Organ Mean Total Flux Muscle (Mouse 12, dose 0.5 mg/kg): 22.8 p/s (×10^6)
- Organ Mean Total Flux Pancreas (Mouse 12, dose 0.5 mg/kg): 10.4 p/s (×10^6)
- Organ Mean Total Flux Spleen (Mouse 12, dose 0.5 mg/kg): 50.1 p/s (×10^6)

Structure (SMILES): CCCC/C=C\CCOC(=O)CCCCCCCC(=O)OCC(COC(=O)CCCCCCCC(=O)OCC/C=C\CCCC)(COC(=O)CCCCCCCC(=O)OCC/C=C\CCCC)COC(=O)CCC(CCCCCC)OC(=O)NCCN1CCCC1 (centres unmarked) [Compound 21, O9-[2,2-bis[[9-[(Z)-oct-3-enoxy]-9-oxo-nonanoyl]oxymethyl]-3-[4-(2-pyrrolidin-1ylethylcarbamoyloxy)decanoyloxy]propyl]O1-[(Z)-oct-3-enyl]nonanedioate]
- Organ Mean Total Flux Femur (Mouse 11, dose 0.5 mg/kg): 2.0 p/s (×10^6)
- Organ Mean Total Flux Heart (Mouse 11, dose 0.5 mg/kg): 0.8 p/s (×10^6)
- Organ Mean Total Flux Kidney (Mouse 11, dose 0.5 mg/kg): 0.7 p/s (×10^6)
- Organ Mean Total Flux Liver (Mouse 11, dose 0.5 mg/kg): 818.7 p/s (×10^6)
- Organ Mean Total Flux Lung (Mouse 11, dose 0.5 mg/kg): 6.6 p/s (×10^6)
- Organ Mean Total Flux Muscle (Mouse 11, dose 0.5 mg/kg): 4.1 p/s (×10^6)
- Organ Mean Total Flux Pancreas (Mouse 11, dose 0.5 mg/kg): 2.8 p/s (×10^6)
- Organ Mean Total Flux Spleen (Mouse 11, dose 0.5 mg/kg): 2.0 p/s (×10^6)

Structure (SMILES): CCCCC/C=C\CCOC(=O)CCCCC(=O)OCC(COC(=O)CCCCC(=O)OCC/C=C\CCCCC)(COC(=O)CCC(CCCCCC)OC(=O)NCCN1CCCC1)COC(=O)C1CCC2C(C1)C2(F)F (centres unmarked) [Compound 103, O6-[2-[(7,7-difluoronorcarane-3-carbonyl)oxymethyl]-2-[[6-[(Z)-non-3-enoxy]-6-oxo-hexanoyl]oxymethyl]-3-[4-(2-pyrrolidin-1ylethylcarbamoyloxy)decanoyloxy]propyl]O1-[(Z)-non-3-enyl]hexanedioate]
- Organ Mean Total Flux Femur (Mouse 13, dose 0.5 mg/kg): 26.0 p/s (×10^6)
- Organ Mean Total Flux Heart (Mouse 13, dose 0.5 mg/kg): 0.8 p/s (×10^6)
- Organ Mean Total Flux Kidney (Mouse 13, dose 0.5 mg/kg): 2.4 p/s (×10^6)
- Organ Mean Total Flux Liver (Mouse 13, dose 0.5 mg/kg): 444.3 p/s (×10^6)
- Organ Mean Total Flux Lung (Mouse 13, dose 0.5 mg/kg): 16.0 p/s (×10^6)
- Organ Mean Total Flux Muscle (Mouse 13, dose 0.5 mg/kg): 4.5 p/s (×10^6)
- Organ Mean Total Flux Pancreas (Mouse 13, dose 0.5 mg/kg): 13.5 p/s (×10^6)
- Organ Mean Total Flux Spleen (Mouse 13, dose 0.5 mg/kg): 161.3 p/s (×10^6)

Structure (SMILES): CCCCC/C=C\CCOC(=O)CCCCC(=O)OCC(COC(=O)CCCCC(=O)OCC/C=C\CCCCC)(COC(=O)CCCCC(=O)OCC/C=C\CCCCC)COC(=O)CCC(CCCCCC)OC(=O)NCCN1CCCC1 (centres unmarked) [Compound 13, O6-[2,2-bis[[6-[(Z)-non-3-enoxy]-6-oxo-hexanoyl]oxymethyl]-3-[4-(2-pyrrolidin-1-ylethylcarbamoyloxy)decanoyloxy]propyl]O1-[(Z)-non-3-enyl]hexanedioate]
- Organ Mean Total Flux Femur (Mouse 12, dose 0.5 mg/kg): 4.8 p/s (×10^6)
- Organ Mean Total Flux Heart (Mouse 12, dose 0.5 mg/kg): 1.0 p/s (×10^6)
- Organ Mean Total Flux Kidney (Mouse 12, dose 0.5 mg/kg): 4.5 p/s (×10^6)
- Organ Mean Total Flux Liver (Mouse 12, dose 0.5 mg/kg): 620.0 p/s (×10^6)
- Organ Mean Total Flux Lung (Mouse 12, dose 0.5 mg/kg): 16.7 p/s (×10^6)
- Organ Mean Total Flux Muscle (Mouse 12, dose 0.5 mg/kg): 17.0 p/s (×10^6)
- Organ Mean Total Flux Pancreas (Mouse 12, dose 0.5 mg/kg): 1.1 p/s (×10^6)
- Organ Mean Total Flux Spleen (Mouse 12, dose 0.5 mg/kg): 21.3 p/s (×10^6)

Structure (SMILES): CCCCC/C=C\CCCOC(=O)CCCCC(=O)OCC(COC(=O)CCCCC(=O)OCCC/C=C\CCCCC)(COC(=O)CCCCC(=O)OCCC/C=C\CCCCC)COC(=O)CCC(CCCCCC)OC(=O)NCCN1CCCC1 (centres unmarked) [Compound 47, O6-[2,2-bis[[6-[(Z)-dec-4-enoxy]-6-oxo-hexanoyl]oxymethyl]-3-[4-(2-pyrrolidin-1ylethylcarbamoyloxy)decanoyloxy]propyl]O1-[(Z)-dec-4-enyl]hexanedioate]
- Organ Mean Total Flux Femur (Mouse 5, dose 0.5 mg/kg): 15.1 p/s (×10^6)
- Organ Mean Total Flux Heart (Mouse 5, dose 0.5 mg/kg): 1.7 p/s (×10^6)
- Organ Mean Total Flux Kidney (Mouse 5, dose 0.5 mg/kg): 2.5 p/s (×10^6)
- Organ Mean Total Flux Liver (Mouse 5, dose 0.5 mg/kg): 974.3 p/s (×10^6)
- Organ Mean Total Flux Lung (Mouse 5, dose 0.5 mg/kg): 25.7 p/s (×10^6)
- Organ Mean Total Flux Muscle (Mouse 5, dose 0.5 mg/kg): 62.4 p/s (×10^6)
- Organ Mean Total Flux Pancreas (Mouse 5, dose 0.5 mg/kg): 4.4 p/s (×10^6)
- Organ Mean Total Flux Spleen (Mouse 5, dose 0.5 mg/kg): 67.0 p/s (×10^6)

Structure (SMILES): CCCCC/C=C\CCOC(=O)CCCCC(=O)OCC(COC(=O)CCCCC(=O)OCC/C=C\CCCCC)(COC(=O)CCC(CCCCCCCC)OC(=O)NCCN1CCCC1)COC(=O)CC12CC3CC(CC(C3)C1)C2 (centres unmarked) [Compound 66, O6-[2-[[2-(1-adamantyl)acetyl]oxymethyl]-2-[[6-[(Z)-non-3-enoxy]-6-oxohexanoyl]oxymethyl]-3-[4-(2-pyrrolidin-1-ylethylcarbamoyloxy)dodecanoyloxy]propyl]O1-[(Z)-non-3-enyl]hexanedioate]
- Organ Mean Total Flux Femur (Mouse 9, dose 0.5 mg/kg): 5.5 p/s (×10^6)
- Organ Mean Total Flux Heart (Mouse 9, dose 0.5 mg/kg): 1.3 p/s (×10^6)
- Organ Mean Total Flux Kidney (Mouse 9, dose 0.5 mg/kg): 1.8 p/s (×10^6)
- Organ Mean Total Flux Liver (Mouse 9, dose 0.5 mg/kg): 68.9 p/s (×10^6)
- Organ Mean Total Flux Lung (Mouse 9, dose 0.5 mg/kg): 14.1 p/s (×10^6)
- Organ Mean Total Flux Muscle (Mouse 9, dose 0.5 mg/kg): 11.3 p/s (×10^6)
- Organ Mean Total Flux Pancreas (Mouse 9, dose 0.5 mg/kg): 4.0 p/s (×10^6)
- Organ Mean Total Flux Spleen (Mouse 9, dose 0.5 mg/kg): 7.8 p/s (×10^6)

Structure (SMILES): CCCCC/C=C\CCOC(=O)CCCCC(=O)OCC(COC(=O)CCCCC(=O)OCC/C=C\CCCCC)(COC(=O)CCC(CCCCCC)OC(=O)NCCN1CCCC1)COC(=O)C1CC2(C1)CC(F)(F)C2 (centres unmarked) [Compound 100, O6-[2-[(2,2-difluorospiro[3.3]heptane-6-carbonyl)oxymethyl]-2-[[6-[(Z)-non-3-enoxy]-6-oxo-hexanoyl]oxymethyl]-3-[4-(2-pyrrolidin-1-ylethylcarbamoyloxy)decanoyloxy]propyl]O1-[(Z)-non-3-enyl]hexanedioate]
- Organ Mean Total Flux Femur (Mouse 12, dose 0.5 mg/kg): 13.8 p/s (×10^6)
- Organ Mean Total Flux Heart (Mouse 12, dose 0.5 mg/kg): 0.7 p/s (×10^6)
- Organ Mean Total Flux Kidney (Mouse 12, dose 0.5 mg/kg): 2.3 p/s (×10^6)
- Organ Mean Total Flux Liver (Mouse 12, dose 0.5 mg/kg): 273.0 p/s (×10^6)
- Organ Mean Total Flux Lung (Mouse 12, dose 0.5 mg/kg): 37.8 p/s (×10^6)
- Organ Mean Total Flux Muscle (Mouse 12, dose 0.5 mg/kg): 4.0 p/s (×10^6)
- Organ Mean Total Flux Pancreas (Mouse 12, dose 0.5 mg/kg): 25.2 p/s (×10^6)
- Organ Mean Total Flux Spleen (Mouse 12, dose 0.5 mg/kg): 163.7 p/s (×10^6)
